{
  "source": "ChEMBL document CHEMBL3727361",
  "about": "“Nitrogen bicyclic compounds as inhibitors for Scyl1 and Grk5” (2014)",
  "data": [
    {"tested_on": "Beta-TC6", "test": "Increase in insulin release in mouse BetaTC6 cells assessed as relative insulin release activity at 10 uM incubated for 2 to 4 hrs by FRET based HTRF assay relative to sunitinib", "assay_type": "functional", "units": {"Activity": "%"}, "values": [
      {"smiles": "Oc1cccc(-c2cnc3cnc(-c4cccc(Cl)c4)cn23)c1", "Activity": 20},
      {"smiles": "CN(C)c1ccccc1-c1cn2c(-c3cccs3)cnc2cn1", "Activity": 20},
      {"smiles": "Fc1cccc(-c2ccc3ncc(-c4ccc5c(c4)OCO5)n3n2)c1", "Activity": 20},
      {"smiles": "Cn1cc(-c2cnc3cnc(-c4ccncc4)cn23)cn1", "Activity": 20},
      {"smiles": "Cc1cc(-c2cn3c(-c4ccncc4)cnc3cn2)cc(C)c1O", "Activity": 20},
      {"smiles": "CC(=O)c1ccc(-c2cn3c(-c4ccc(C(=O)NC5CC5)cc4)cnc3cn2)s1", "Activity": 20},
      {"smiles": "CN(C)C(=O)c1cccc(-c2ccc3nnc(-c4ccc5nccnc5c4)n3c2)c1", "Activity": 50},
      {"smiles": "c1cc(-c2nnc3ccc(-c4ccc(N5CCOCC5)cc4)cn23)ccn1", "Activity": 20},
      {"smiles": "Clc1cccc(-c2nnc3ccc(-c4ncccn4)cn23)c1", "Activity": 10},
      {"smiles": "CN(C)c1cccc(-c2cnc3cnc(-c4ccncc4)cn23)c1", "Activity": 20},
      {"smiles": "OCc1ccc(-c2cnc3cnc(-c4ccc(Cl)cc4Cl)cn23)cc1", "Activity": 20},
      {"smiles": "c1cnc2ccc(-c3ccc4nnc(-c5cscn5)n4c3)cc2c1", "Activity": 50},
      {"smiles": "Nc1cccc(-c2ccc3nnc(-c4cccc(Cl)c4)n3c2)c1", "Activity": 50},
      {"smiles": "c1csc(-c2cnc3cnc(-c4cc5ccccc5s4)cn23)c1", "Activity": 50},
      {"smiles": "Clc1cccc(-c2cn3c(-c4ccc5c(c4)OCO5)cnc3cn2)c1", "Activity": 50},
      {"smiles": "NC(=O)c1ccc(-c2ccc3ncc(-c4cccc(OC(F)(F)F)c4)n3n2)cc1", "Activity": 20},
      {"smiles": "c1cncc(CCNc2ccc3ncc(-c4ccc(N5CCOCC5)cc4)n3n2)c1", "Activity": 50},
      {"smiles": "Cc1ccccc1-c1cn2c(-c3ccc4c(c3)OCO4)cnc2cn1", "Activity": 20},
      {"smiles": "CN1CCN(C(=O)c2cccc(-c3cnc4cnc(-c5ccc(OC(F)(F)F)cc5)cn34)c2)CC1", "Activity": 20},
      {"smiles": "CN(C)CCCOc1ccc(-c2nnc3ccc(C#Cc4ccc(C(=O)N(C)C)cc4)cn23)cc1", "Activity": 20},
      {"smiles": "CCCC/C=C/c1cn2c(NC(=O)Cc3cccc(OC)c3)cnc2cn1", "Activity": 10},
      {"smiles": "CN1CCN(C(=O)c2cccc(-c3cnc4cnc(-c5ccc6c(c5)OCO6)cn34)c2)CC1", "Activity": 20},
      {"smiles": "COc1ccc(-c2ccc3nnc(-c4ccccc4C)n3c2)cc1OC", "Activity": 50},
      {"smiles": "c1cc(-c2ccc3nnc(-c4ccc5c(c4)OCO5)n3c2)co1", "Activity": 50},
      {"smiles": "CC(=O)Nc1cccc(-c2cn3c(-c4ccc(F)c(Cl)c4)cnc3cn2)c1", "Activity": 20},
      {"smiles": "CC(C)Oc1cccc(-c2cn3c(-c4cccc(CO)c4)cnc3cn2)c1", "Activity": 20},
      {"smiles": "Oc1ccc(-c2cnc3cnc(-c4ccc(Cl)cc4)cn23)cc1", "Activity": 20},
      {"smiles": "COc1ccc(-c2ccc3nnc(-c4cscn4)n3c2)c(C)c1", "Activity": 50},
      {"smiles": "C(=C\\c1cnc2cccnn12)/c1ccccc1", "Activity": 20},
      {"smiles": "CC(=O)c1cccc(-c2cnc3ccc(-c4ccc(N)nc4)nn23)c1", "Activity": 20},
      {"smiles": "COc1cc(-c2cnc3cnc(-c4ccc(N5CCN(C)CC5)nc4)cn23)ccc1O", "Activity": 20},
      {"smiles": "O=C(Cc1ccsc1)Nc1cnc2cnc(-c3ccccc3F)cn12", "Activity": 10},
      {"smiles": "FC(F)(F)Oc1cccc(-c2nnc3ccc(C#Cc4ccccc4)cn23)c1", "Activity": 20},
      {"smiles": "COc1cc(CNc2ccc3ncc(-c4ccc(N(C)C)cc4)n3n2)cc(OC)c1OC", "Activity": 10},
      {"smiles": "FC(F)(F)Oc1ccc(-c2cn3c(-c4cccs4)cnc3cn2)cc1", "Activity": 20},
      {"smiles": "CC(C)Oc1cccc(-c2cn3c(-c4ccc5c(c4)OCO5)cnc3cn2)c1", "Activity": 50},
      {"smiles": "CC(C)N1CCN(c2ccc(-c3cn4c(-c5ccc(C(=O)NC6CC6)cc5)cnc4cn3)cc2)CC1", "Activity": 20},
      {"smiles": "CN1CCN(c2ccc(-c3cnc4cccnn34)cn2)CC1", "Activity": 10},
      {"smiles": "Nc1ccc(-c2cn3c(NC(=O)c4ccccc4)cnc3cn2)cc1", "Activity": 20},
      {"smiles": "CCCNc1ccc2ncc(-c3ccc(C(=O)O)cc3)n2n1", "Activity": 10},
      {"smiles": "Clc1ccc(-c2cnc3cnc(-c4ccsc4)cn23)cc1", "Activity": 50},
      {"smiles": "COc1cc(OC)cc(-c2cnc3cnc(-c4ccccc4N(C)C)cn23)c1", "Activity": 20},
      {"smiles": "Cc1ccccc1-c1nnc2ccc(-c3cccc(C(=O)NCCO)c3)cn12", "Activity": 10}
    ]}
  ]
}
